Measured values as given in patent US20240116985A1, “STAPLED PEPTIDES AND METHODS THEREOF” (priority 2020, published 2024).
In brackets after ≈: the same amount, converted by molar mass. Read-outs that look alike come from different tables or passages of the source.

Columns and labels:
[1] = CHI Log D procedure; assay type: physicochemical
[2] = target: T1, full-length beta-Catenin (Uniprot ID P35222) (Homo sapiens, UniProt P35222); assay: Fluorescence polarization IC50 (beta-catenin / 5FAM-TCF4 10-53 competition); assay type: binding
T1 construct: 10 nM full-length beta-Catenin (Uniprot ID P35222)
T1 sequence (P35222 1-781): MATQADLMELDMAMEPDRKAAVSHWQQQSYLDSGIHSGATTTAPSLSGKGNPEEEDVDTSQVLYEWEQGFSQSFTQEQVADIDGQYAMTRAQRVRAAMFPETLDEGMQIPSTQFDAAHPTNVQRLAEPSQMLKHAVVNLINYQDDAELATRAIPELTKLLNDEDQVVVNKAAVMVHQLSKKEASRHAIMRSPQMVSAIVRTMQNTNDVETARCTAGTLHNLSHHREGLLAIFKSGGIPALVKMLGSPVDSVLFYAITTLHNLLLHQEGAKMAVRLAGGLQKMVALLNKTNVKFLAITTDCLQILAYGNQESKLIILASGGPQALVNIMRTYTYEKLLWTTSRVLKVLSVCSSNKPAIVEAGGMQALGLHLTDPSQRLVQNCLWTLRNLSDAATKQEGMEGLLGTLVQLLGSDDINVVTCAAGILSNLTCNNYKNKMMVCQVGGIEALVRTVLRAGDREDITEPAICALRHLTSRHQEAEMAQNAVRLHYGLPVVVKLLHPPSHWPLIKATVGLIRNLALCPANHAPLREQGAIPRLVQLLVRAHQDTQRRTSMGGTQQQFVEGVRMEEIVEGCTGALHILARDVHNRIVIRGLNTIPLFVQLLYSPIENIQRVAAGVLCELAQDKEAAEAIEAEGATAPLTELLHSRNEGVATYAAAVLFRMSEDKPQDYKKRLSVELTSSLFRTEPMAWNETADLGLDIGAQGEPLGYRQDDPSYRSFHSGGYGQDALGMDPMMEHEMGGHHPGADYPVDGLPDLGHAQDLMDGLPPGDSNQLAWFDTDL

[3] = target: T2, beta-catenin/TCF4 engagement (Homo sapiens, UniProt P35222); assay: Nano-BRET target engagement assay (B-cat-Halo & TCF4-Luc in HEK293 cells); assay type: cell-based; settings: for IC50: read-out: NanoBRET Abs IC50
T2 construct: expressed in transfected cells; host or cells: HEK293
T2 sequence (P35222 1-781): T1 sequence (P35222 1-781)

[4] = Solubility in PBS; assay type: physicochemical
Method in brief: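 Steps: ultracentrifuge the peptide PBS solution, inject the supernatant on HPLC, inject a 50 μM peptide DMSO solution as reference, then calculate solubility as area ratio (PBS/DMSO) × 50 uM.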

[5] = fluorescence polarization, read-out: beta-Catenin FP IC50

Row | Structure (SMILES) | chromatographic logD ([1]; pH 7.4, CHI Log D) | IC50 [2, 5] | IC50 ([3]; absolute IC50) | Solubility ([4]; Solubility (uM)) | IC50 ([2]; read-out: beta-Catenin FP IC50) | IC50 [3] | Solubility [4] | also measured
1 | CC(=O)N1CCC[C@]12CC=CCCCC1(CCCC=CCCCCCC[C@@](C)(C(=O)N[C@@H](Cc3ccccc3)C(=O)N[C@@H](Cc3csc4ccccc34)C(=O)N[C@@H](Cc3c[nH]cn3)C(N)=O)NC(=O)[C@H](CC(N)=O)NC(=O)[C@H](Cc3ccccc3)NC(=O)[C@H](C)NC(=O)[C@H](C)NC(=O)[C@H](CCC(=O)O)NC(=O)[C@H](CC(=O)O)NC1=O)NC(=O)[C@H](CC(C)C)NC(=O)[C@H](CC(=O)O)NC2=O (stereo partly drawn) [I-543, Ac-PL3-Asp-Leu-B5-Asp-Glu-Ala-Ala-Phe-Asn-S8-Phe-BztA-His-NH2] | 2.47 | 0.032 µM | 17 µM | 28 µM (≈ 52.6 µg/mL) |  |  |  | 
2 | CC(=O)N1CCC[C@]12CC=CCCCC1(CCCC=CCCCOC(=O)N3CC[C@@](C(=O)N[C@@H](CC4CCCCC4)C(=O)N[C@@H](Cc4csc5ccccc45)C(=O)N[C@@H](CO)C(N)=O)(C3)NC(=O)[C@H](CO)NC(=O)[C@H](Cc3ccccc3)NC(=O)[C@H](C)NC(=O)[C@H](C)NC(=O)[C@H](CC(=O)O)NC(=O)[C@H](CC(=O)O)NC1=O)NC(=O)[C@H](CC(C)(C)C)NC(=O)[C@H](CC(=O)O)NC2=O (stereo partly drawn) [I-1106, Ac-PL3-Asp-Npg-B5-Asp-Asp-Ala-Ala-Phe-Ser-PyrS2-Cha-BztA-Ser-NH2] | 2.44 |  | > 20 µM | 47 µM (≈ 87 µg/mL) | 0.023 µM |  |  | 
3 | COc1cccc(C[C@@H]2NC(=O)[C@H](C)NC(=O)[C@H](C)NC(=O)[C@H](CC(=O)O)NC(=O)[C@H](CC(=O)O)NC(=O)C3(CCCC=CCCCOC(=O)N4CC[C@@](C(=O)N[C@@H](Cc5ccccc5)C(=O)N[C@@H](Cc5csc6ccccc56)C(=O)N[C@@H](CCC(N)=O)C(N)=O)(C4)NC(=O)[C@H](CO)NC2=O)CCCC=CC[C@]2(CCCN2C(C)=O)C(=O)N[C@@H](CC(=O)O)C(=O)N[C@@H](CC2CCCCC2)C(=O)N3)c1 (stereo partly drawn) [I-1124, Ac-PL3-Asp-Cha-B5-Asp-Asp-Ala-Ala-3OMeF-Ser-PyrS2-Phe-BztA-Gln-NH2] | 2.22 |  | > 20 µM | 47 µM (≈ 91.2 µg/mL) | 0.012 µM |  |  | 
4 | CC[C@H](C)[C@@H]1NC(=O)[C@H](CC(=O)O)NC(=O)[C@]2(CC=CCCCC3(CCCC=CCCCCCC[C@@](C)(C(=O)N[C@@H](Cc4ccsc4)C(=O)N[C@@H](Cc4csc5ccccc45)C(=O)N[C@@H](Cc4c[nH]cn4)C(N)=O)NC(=O)[C@H](CC(N)=O)NC(=O)[C@H](Cc4ccccc4)NC(=O)[C@H](C)NC(=O)[C@H](C)NC(=O)[C@H](CCC(=O)O)NC(=O)[C@H](CC(=O)O)NC3=O)NC1=O)CCCN2C(C)=O (stereo partly drawn) [I-517, Ac-PL3-Asp-Ile-B5-Asp-Glu-Ala-Ala-Phe-Asn-S8-3Thi-BztA-His-NH2] | 2.42 | 0.015 µM | 9.7 µM | 15 µM (≈ 28.3 µg/mL) |  |  |  | 
5 | CC(=O)N1CCC[C@]12CC=CCCCC1(CCCC=CCCCOC(=O)N3CC[C@@](C(=O)N[C@@H](Cc4ccsc4)C(=O)N[C@@H](Cc4csc5ccccc45)C(=O)N[C@@H](CCC(N)=O)C(=O)N[C@@H](CCCCNC(=O)C45CC6CC(CC(C6)C4)C5)C(N)=O)(C3)NC(=O)[C@H](CC(N)=O)NC(=O)[C@H](Cc3ccccc3)NC(=O)[C@H](C)NC(=O)[C@H](C)NC(=O)[C@H](CC(=O)O)NC(=O)[C@H](CC(=O)O)NC1=O)NC(=O)[C@H](CC(C)(C)C)NC(=O)[C@H](CC(=O)O)NC2=O (stereo partly drawn) [I-919, Ac-PL3-Asp-Npg-B5-Asp-Asp-Ala-Ala-Phe-Asn-PyrS2-3Thi-BztA-Gln-[AdamantC]Lys-NH2] | 2.55 |  |  | 44 µM (≈ 97.2 µg/mL) | 0.028 µM | 15.2 µM |  | 
6 | CC(=O)N1CCC[C@]12CC=CCCCC1(CCCC=CCCCOC(=O)N3CC[C@@](C(=O)N[C@@H](Cc4ccsc4)C(=O)N[C@@H](Cc4csc5ccccc45)C(=O)N[C@@H](CCC(N)=O)C(N)=O)(C3)NC(=O)[C@H](CC(N)=O)NC(=O)[C@H](Cc3ccccc3)NC(=O)[C@H](C)NC(=O)[C@H](C)NC(=O)[C@H](Cc3ccc(O)cc3)NC(=O)[C@H](CC(=O)O)NC1=O)NC(=O)[C@H](CC(C)(C)C)NC(=O)[C@H](CC(=O)O)NC2=O (stereo partly drawn) [I-842, Ac-PL3-Asp-Npg-B5-Asp-Tyr-Ala-Ala-Phe-Asn-PyrS2-3Thi-BztA-Gln-NH2] | 2.39 |  | 47.9 µM |  | 0.034 µM |  | 10 µM (≈ 19.7 µg/mL) | 
7 | CC(=O)N1CCC[C@]12CC=CCCCC1(CCCC=CCCCOC(=O)N3CC[C@@](C(=O)N[C@@H](Cc4ccsc4)C(=O)N[C@@H](Cc4csc5ccccc45)C(=O)N[C@@H](CCC(N)=O)C(=O)N[C@@H](CCCCNC(=O)C(C)(c4ccccc4)c4ccccc4)C(N)=O)(C3)NC(=O)[C@H](CC(N)=O)NC(=O)[C@H](Cc3ccccc3)NC(=O)[C@H](C)NC(=O)[C@H](C)NC(=O)[C@H](CC(=O)O)NC(=O)[C@H](CC(=O)O)NC1=O)NC(=O)[C@H](CC(C)(C)C)NC(=O)[C@H](CC(=O)O)NC2=O (stereo partly drawn) [I-904, Ac-PL3-Asp-Npg-B5-Asp-Asp-Ala-Ala-Phe-Asn-PyrS2-3Thi-BztA-Gln-[22PhPr]Lys-NH2] |  |  |  |  | 0.054 µM | 20 µM | 30 µM (≈ 67.6 µg/mL) | chromatographic logD ([1]; pH 7.4): 2.65
8 | CC(=O)N1CCC[C@]12CC=CCCCC1(CCCC=CCCCCCC[C@@](C)(C(=O)N[C@@H](Cc3ccccc3Cl)C(=O)N[C@@H](Cc3csc4ccccc34)C(=O)N[C@@H](CCC(N)=O)C(N)=O)NC(=O)[C@H]([C@@H](C)O)NC(=O)[C@H](Cc3ccccc3)NC(=O)[C@H](C)NC(=O)[C@H](C)NC(=O)[C@H](CCC(=O)O)NC(=O)[C@H](CC(=O)O)NC1=O)NC(=O)[C@H](CC(C)(C)C)NC(=O)[C@H](CC(=O)O)NC2=O (stereo partly drawn) [I-1089, Ac-PL3-Asp-Npg-B5-Asp-Glu-Ala-Ala-Phe-Thr-S8-2C1F-BztA-Gln-NH2] |  |  |  |  | 0.012 µM | 8.9 µM | 43 µM (≈ 81.9 µg/mL) | CHI Log D ([1]; pH 7.4): 2.826; IC50 ([2]; fluorescence polarization, beta-catenin, read-out: FP EC50): 0.012 µM
9 | CCCC(=O)NCCCC[C@@H]1NC(=O)[C@H](C)NC(=O)[C@H](CC(=O)O)NC(=O)[C@H](CC(=O)O)NC(=O)C2(CCCC=CCCCOC(=O)N3CC[C@@](C(=O)N[C@@H](Cc4ccsc4)C(=O)N[C@@H](Cc4csc5ccccc45)C(=O)N[C@@H](CCC(N)=O)C(N)=O)(C3)NC(=O)[C@H](CC(N)=O)NC(=O)[C@H](Cc3ccccc3)NC1=O)CCCC=CC[C@]1(CCCN1C(C)=O)C(=O)N[C@@H](CC(=O)O)C(=O)N[C@@H](CC(C)(C)C)C(=O)N2 (stereo partly drawn) [I-897, Ac-PL3-Asp-Npg-B5-Asp-Asp-Ala-[Bua]Lys-Phe-Asn-PyrS2-3Thi-BztA-Gln-NH2] | 1.65 |  |  | 43 µM (≈ 88 µg/mL) | 0.016 µM | > 20 µM |  | 
10 | CC(=O)N1CCC[C@]12CC=CCCCC1(CCCC=CCCCCCC[C@@](C)(C(=O)N[C@@H](Cc3ccccc3)C(=O)N[C@@H](Cc3csc4ccccc34)C(=O)N[C@@H](CCC(N)=O)C(N)=O)NC(=O)[C@H](CC(N)=O)NC(=O)[C@H](Cc3ccccc3)NC(=O)[C@H](C)NC(=O)[C@H](C)NC(=O)[C@H](CC(=O)O)NC(=O)[C@H](CC(=O)O)NC1=O)NC(=O)[C@H](C(C)C)NC(=O)[C@H](CC(=O)O)NC2=O (stereo partly drawn) [I-567, Ac-PL3-Asp-Val-B5-Asp-Asp-Ala-Ala-Phe-Asn-S8-Phe-BztA-Gln-NH2] |  | 0.037 µM |  |  |  |  | 50 µM (≈ 92.1 µg/mL) | CHI Log D ([1]; pH 7.4): 2.243; IC50 ([2]; read-out: FP EC50): 0.037 µM; inhibition at 10 µM ([3]; HEK293, @ 10 uM, read-out: NanoBRET % inh @ 10 uM): 8.9%
11 | CC(=O)N1CCC[C@]12CC=CCCCC1(CCCC=CCCCOC(=O)N3CC[C@@](C(=O)N[C@@H](Cc4cscn4)C(=O)N[C@@H](Cc4csc5ccccc45)C(=O)N[C@@H](CCC(N)=O)C(N)=O)(C3)NC(=O)[C@H](CC(N)=O)NC(=O)[C@H](Cc3ccccc3)NC(=O)[C@H](C)NC(=O)[C@H](C)NC(=O)[C@H](CC(=O)O)NC(=O)[C@H](CC(=O)O)NC1=O)NC(=O)[C@H](CC(C)(C)C)NC(=O)[C@H](CC(=O)O)NC2=O (stereo partly drawn) [I-811, Ac-PL3-Asp-Npg-B5-Asp-Asp-Ala-Ala-Phe-Asn-PyrS2-4Thz-BztA-Gln-NH2] | 1.68 |  |  | 43 µM (≈ 82.5 µg/mL) | 0.032 µM | > 20 µM |  | 
12 | CC[C@H](C)[C@@H]1NC(=O)[C@H](CC(=O)O)NC(=O)[C@]2(CC=CCCCC3(CCCC=CCCCCCC[C@@](C)(C(=O)N[C@@H](Cc4ccccc4OC)C(=O)N[C@@H](Cc4csc5ccccc45)C(=O)N[C@@H](Cc4c[nH]cn4)C(N)=O)NC(=O)[C@H](CC(N)=O)NC(=O)[C@H](Cc4ccccc4)NC(=O)[C@H](C)NC(=O)[C@H](C)NC(=O)[C@H](CCC(=O)O)NC(=O)[C@H](CC(=O)O)NC3=O)NC1=O)CCCN2C(C)=O (stereo partly drawn) [I-512, Ac-PL3-Asp-Ile-B5-Asp-Glu-Ala-Ala-Phe-Asn-S8-2OMeF-BztA-His-NH2] | 2.44 | 0.02 µM | 12.3 µM | 17 µM (≈ 32.4 µg/mL) |  |  |  | 
